The results in this text go back to patent EP0105658A1, “Beta-lactam compounds” (BEECHAM GROUP PLC, priority 1982, dated 1984).

Values after ≈ are worked out from the molar mass of the structure shown. Like-named read-outs stand apart in the source and are kept apart here.

The subject of one data set is Pseudomonas aeruginosa A. Briefly: MIC, antibacterial activity (microtitre using nutrient broth). It counts as cell-based. As to conditions: for MIC: Pseudomonas aeruginosa.
In a further data set the test system is S aureus Russell. Described as above. It counts as cell-based. As to conditions: * racemic, not corrected for presence of inactive enantiomer.
Data set [1] in a line: Stability in kidney preparations (human). It counts as in vitro ADME.
A further data set has as its system S typhimurium CT10. The experiment in a line: MIC, antibacterial activity (microtitre using nutrient broth). It counts as cell-based. As to conditions: * racemic, not corrected for presence of inactive enantiomer.
The nature of data set [2]: Stability in kidney preparations (pig). Format: in vitro ADME. To be noted: 100 mg/ml solubilised in 5% Triton X-100, * racemic compounds: figures based on stability of bio-active enantiomer.
The next data set relates to E. coli JT39. Briefly: MIC against E. coli JT39. It counts as cell-based. Details: unit not given here.
The next data set concerns R + E coli. Briefly: MIC, antibacterial activity (microtitre using nutrient broth). It counts as cell-based. To be noted: * racemic, not corrected for presence of inactive enantiomer.
Where [3] appears, read: Microtitre using Nutrient broth, * racemic, not corrected for presence of inactive enantiomer, read-out: MIC P aeruginosa A.
The mark [4] stands for this setting: 15% solubilised in 5% Triton X-100, 60 minutes, * racemic compounds: figures based on stability of bio-active enantiomer.

A word on the MIC: it is the lowest concentration that inhibits growth of the organism.

In the case of `C/C(=C/CN)SC1=C(C(=O)O)N2C(=O)[C@H]([C@@H](C)O)[C@H]2C1` [Example 10, (5R,6S)-3-[(Z)-3-amino-1-methylprop-1-enylthio]-6-[(R)-1-hydroxyethyl]-7-oxo-1-azabicyclo[3.2.0]hept-2-ene-2-carboxylic acid], the MIC was 25 µg/mL in the data set on Pseudomonas aeruginosa A (setting [3]), 0.1 µg/mL in the data set with S aureus Russell and 0.2 µg/mL in the data set on S typhimurium CT10. Further, the “% left after 60 minutes Human Kidney Sonicate” value in data set [1] (human, 60 min) is on record as 56%.

As to `C[C@@H](O)[C@H]1C(=O)N2C(C(=O)O)=C(S/C=C/CN)C[C@H]12` [Example 12, (5R, 6S)-3-[(E)-3-aminoprop-1-enylthio]-6-[(R)-1-hydroxyethyl]-7-oxo-1-azabicyclo[3.2.0]hept-2-ene-2-carboxylic acid], the values for the MIC in the data set with Pseudomonas aeruginosa A (setting [3]), in the data set on S aureus Russell and with S typhimurium CT10 were 12.5 µg/mL, less than 0.1 µg/mL and 0.2 µg/mL, respectively. Further, the “% left after 60 minutes Human Kidney Sonicate” value in data set [1] (human, 60 min) turned out to be 5%.

Regarding `C[C@H](O)[C@@H]1C(=O)N2C(C(=O)O)=C(S/C=C\CN)C[C@H]12` [Example 1], in data set [2], the “% left after 60 minutes Pig Kidney Acetone Powder” value is reported as 39%. For the same compound, the MIC with Pseudomonas aeruginosa A (read-out: MIC against Pseudomonas aeruginosa A) was found to be 6.2 µg/mL (≈ 21.8 µM). Besides, in the data set with E. coli JT39, the “MIC against E. coli JT39” value was 0.4. Besides, the “% left after 60 minutes Human Kidney Sonicate” value in data set [1] (setting [4]) came out at 40%.

As for `C/C(=C\CN)SC1=C(C(=O)O)N2C(=O)[C@@H]([C@H](C)O)[C@H]2C1` [Example 16, (5R, 6R)-3-[(E)-3-amino-1-methylprop-1-enylthio]-6-[(S)-1-hydroxyethyl]-7-oxo-1-azabicyclo[3.2.0]hept-2-ene-2-carboxylate], the “% left after 60 minutes Pig Kidney Acetone Powder” value in data set [2] came to 38%. For the same compound, the MIC in the data set with Pseudomonas aeruginosa A (setting [3]) was 25 µg/mL; with S aureus Russell, less than 0.1 µg/mL; in the data set with R + E coli, 1.6 µg/mL; in the data set with S typhimurium CT10 it was 0.2 µg/mL. Also, the “% left after 60 minutes Human Kidney Sonicate” value in data set [1] (setting [4]) worked out at 13%.

As for `C[C@H](O)[C@@H]1C(=O)N2C(C(=O)O)=C(S/C=C/CN)C[C@H]12` [Example 11, (5R,6R)-3-[(E)-3-aminoprop-1-enylthio]-6-[(S)-1-hydroxyethyl]-7-oxo-1-azabicyelo[3.2.0]hept-2-ene-2-carboxylic acid], in data set [2], the “% left after 60 minutes Pig Kidney Acetone Powder” value was found to be 6%. The MIC in the data set on Pseudomonas aeruginosa A (setting [3]) was 12.5 µg/mL; with S aureus Russell, less than 0.1 µg/mL; with R + E coli, less than 0.1 µg/mL; with S typhimurium CT10, 0.4 µg/mL. Further, in data set [1] (setting [4]), the “% left after 60 minutes Human Kidney Sonicate” value stood at 7%.

Take `C[C@@H](O)[C@H]1C(=O)N2C(C(=O)O)=C(S/C=C\CN)C[C@H]12` [Example 2, (5R,6S)-3-[(Z)-3-aminoprop-1-enylthio]-6-[(R)-1-hydroxyethyl]-7-oxo-1-azabicy,clo[3.2.0]hept-2-ene-2-carboxylic acid]: the “MIC P aeruginosa A” value in the data set with Pseudomonas aeruginosa A (Microtitre using Nutrient broth, * racemic, not corrected for presence of inactive enantiomer) is 25 µg/mL. Besides, the “MIC S aureus Russell” value with S aureus Russell was 0.08 µg/mL. Further, the “MIC R + E coli” value in the data set on R + E coli turned out to be 0.3 µg/mL. The “MIC S typhimurium CT10” value in the data set with S typhimurium CT10 was 0.6 µg/mL.

As to `C[C@@H](O)[C@H]1C(=O)N2C(C(=O)O)=C(S/C=C\CN)C[C@H]12` (racemic) [Example 13, (5RS, 6SR)-3-[(Z)-3-Aminoprop-1-enylthio]-b-[(1RS)-1-hydroxyethyl]-7-oxo-1-azabicyclo[3.2.0]hept-2-ene-2-carboxylic acid], the “% left after 60 minutes Pig Kidney Acetone Powder” value in data set [2] is reported as 40%. Besides, the MIC in the data set with Pseudomonas aeruginosa A (setting [3]) is 25 µg/mL; with S aureus Russell, 0.08 µg/mL; with R + E coli, 0.4 µg/mL; with S typhimurium CT10, 0.6 µg/mL. Besides, the “% left after 60 minutes Human Kidney Sonicate” value in data set [1] (setting [4]) was found to be 39%.

On to `C/C(=C/CN)SC1=C(C(=O)O)N2C(=O)[C@@H]([C@H](C)O)[C@H]2C1` [Example 8], for which the “% left after 60 minutes Pig Kidney Acetone Powder” value in data set [2] was determined as 78%. For the same compound, the MIC in the data set on Pseudomonas aeruginosa A (setting [3]) was 25 µg/mL; in the data set with S aureus Russell, less than 0.1 µg/mL; in the data set on R + E coli, 1.6 µg/mL; in the data set with S typhimurium CT10 it was less than 0.1 µg/mL. Besides, the “% left after 60 minutes Human Kidney Sonicate” value in data set [1] (setting [4]) worked out at 51%.

As to `C/C(=C\CN)SC1=C(C(=O)O)N2C(=O)[C@H]([C@@H](C)O)[C@H]2C1` (racemic) [Example 14, (5RS, 6SR)-3-[(E)-3-amino-1-methylprop-1-enylthio]-6-[(RS)-1-hydroxyethyl]-7-oxo=1-azabicyclo[3.2.0]hept-2-ene-2-carboxylic acid], the “% left after 60 minutes Pig Kidney Acetone Powder” value in data set [2] was 36%. In addition, the MIC is 25 µg/mL in the data set on Pseudomonas aeruginosa A (setting [3]), less than 0.1 µg/mL with S aureus Russell, 0.4 µg/mL with R + E coli and 0.4 µg/mL with S typhimurium CT10. Further, in data set [1] (setting [4]), the “% left after 60 minutes Human Kidney Sonicate” value worked out at 23%.
